The record followed here is BindingDB's records for doi:10.1021/jm00087a007 (Uppsala University, 1992).

SMILES strings stand for the structures.

The nature of experiment [1]: Compound was evaluated for its binding affinity against muscarinic acetylcholine receptor M2 in guinea pig heart using (-)-[3H]-QNB as radioligand.
Experiment [2] is described as follows: Compound was evaluated for its binding affinity against Muscarinic acetylcholine receptor M1 in guinea pig cerebral cortex using (-)-[3H]-QNB as radioligand.
A short description of experiment [3]: Compound was evaluated for its binding affinity against muscarinic acetylcholine receptor M2 in guinea pig heart using (-)-[3H]-QNB as radioligand. The source holds these as a separate data set.
Assay in experiment [4]: as above
The source holds these as a separate data set.

The nature of experiment [5]: Compound was evaluated for its binding affinity against Muscarinic acetylcholine receptor M1 in guinea pig cerebral cortex using (-)-[3H]-QNB as radioligand. This is another data set of the same source.

For orientation: Ki means a dissociation constant, usually derived from enzyme kinetics or from competition with a known ligand. A lower Ki goes with a stronger hold on the target.

With `C[C@H]1CCC2(CN3CCC2CC3)O1` (stereo partly specified), the inhibitory constant (Ki) in experiment [1] and in experiment [2] was 15 µM each time.

As for `C[C@H]1OCC2(CN3CCC2CC3)O1` (stereo partly drawn) [(2'S)-2'-methylspiro[4-azabicyclo[2.2.2]octane-2,4'-[1,3]dioxolane]], the figures for the inhibition constant (Ki) in experiment [3] and in experiment [2] were 9.7 µM and 2.9 µM, respectively.

For the compound `C1OCC2(CN3CCC2CC3)O1` (stereo unspecified), the inhibition constant Ki is 50 µM in experiment [3] and 19 µM in experiment [2].

On to `C[C@@H]1OCC2(CN3CCC2CC3)O1` (stereo partly drawn) [(2'S)-2'-methylspiro[4-azabicyclo[2.2.2]octane-2,4'-[1,3]dioxolane]], for which the Ki was greater than 21 µM in experiment [1] and 6.3 µM in experiment [2].

With `C[C@@H]1CCC2(CN3CCC2CC3)O1` (stereo partly specified), the inhibition constant (Ki) in experiment [4] was greater than 25 µM; in experiment [5], 20 µM.

As to `CC1(C)OCC2(CN3CCC2CC3)O1` (stereo unspecified), the inhibition constant (Ki) in experiment [3] came out at 30 µM; in experiment [2], 9.3 µM.

For the compound `C[C@H]1CC2(CO1)CN1CCC2CC1` (stereo partly specified), the results for the inhibition constant Ki in experiment [4] and in experiment [5] were greater than 20 µM and 6.5 µM, respectively.

On to `C[C@@H]1CC2(CO1)CN1CCC2CC1` (stereo partly specified), for which the inhibitory constant (Ki) in experiment [1] was greater than 20 µM; in experiment [2], 6.3 µM.
